{"source": "patent US20100215782A1", "about": "“NOVEL MITOCHONDRIAL UNCOUPLING METHODS AND COMPOSITIONS FOR ENHANCING ADIPOCYTE THERMOGENESIS” (METAPROTEOMICS, LLC, priority 2008, published 2010)", "key": {"[1]": {"system": "3T3-L1 adipocytes", "experiment": "JC-1 mitochondrial membrane potential (uncoupling) assay in 3T3-L1 adipocytes", "format": "cell-based, murine", "conditions": "for Monomer/Aggregate Ratio: 3T3-L1 adipocytes, test material 25 μg/mL, JC-1 fluorescence relative to JC-1 negative control, values >1.06 significant (p<0.05)", "from_the_text": "Objective—The objective of this experiment was to observe the dose-response effect of the mitochondrial uncoupler DNP on mitochondrial membrane potential in 3T3-L1 adipocytes using the lipophilic cationic dye, 5,5′,6,6′-tetrachloro-1,1′,3,3′-tetraethylbenzimidazolylcarbocyanine iodide (JC-1).\nThe Model—The 3T3-L1 murine fibroblast model is commonly used to study the potential effects of compounds on white adipose tissue in vitro. This cell line allows investigation of stimuli and mechanisms that regulate inflammatory mediators of cytokine secretion of the adipocyte. As preadipocytes, 3T3-L1 cells have a fibroblastic appearance. They replicate in culture until they form a confluent monolayer, after which cell-cell contact triggers Go/G1 growth arrest. Terminal differentiation of 3T3-L1 cells to adipocytes depends on proliferation of both pre- and post-confluent preadipocytes. Subsequent stimulation with 3-isobutyl-1-methylxanthane, dexamethasone, and high does of insulin (MDI) for two days prompts these cells to undergo post-confluent mitotic clonal expansion, exit the cell cycle, and begin to express adipocyte-specific genes. Approximately five days after induction of differentiation, more than 90% of the cells display the characteristic lipid-filled adipocyte phenotype. At this stage of differentiation, response to mitochondrial uncouplers such as DNP may be assessed.\nCell culture and Treatment—The murine fibroblast cell line 3T3-L1 was purchased from the American Type Culture Collection (Manassas, Va.) and sub-cultured according to instructions from the supplier. Prior to experiments, cells were cultured in DMEM containing 10% FBS-HI added 50 units penicillin/ml and 50 μg streptomycin/ml, and maintained in log phase prior to experimental setup. Cells were grown in a 5% CO2 humidified incubator at 37° C. Components of the pre-confluent medium included: (1) 10% FBS/DMEM (Fetal Bovine Serum/Dulbecco's Modified Eagle's Medium) containing 4.5 g glucose/L; (2) 50 U/ml penicillin; and (3) 50 μg/ml streptomycin. Growth medium was made by adding 50 ml of heat inactivated FBS and 5 ml of penicillin/streptomycin to 500 ml DMEM. This medium was stored at 4° C. Before use, the medium was warmed to 37° C. in a water bath.\n[…] cells were seeded at an initial density of 6×10^4 cells/cm^2 in 24-well plates. For two days, the cells were allowed grow to reach confluence. Following confluence, the cells were forced to differentiate into adipocytes by the addition of differentiation medium; this medium consisted of (1) 10% FBS/DMEM (high glucose); (2) 0.5 mM methylisobutylxanthine; (3) 0.5 μM dexamethasone and (4) 10 μg/ml insulin (MDI medium). After three days, the medium was changed to post-differentiation medium consisting of 10 μg/ml insulin in 10% FBS/DMEM.\nTreatment with Test Material 2,4-Dinitrophenol—On Day 6 post differentiation, DNP was dissolved in dimethyl sulfoxide (DMSO) and added to the culture medium to achieve concentrations of 500, 100, 50, 10 or 5 μM per column for 60 min at 37° C. JC-1 was then added to the test and negative control columns in 10 μL DMSO to achieve a final concentration of 5 μM and allowed to incubate at 37° C. for an additional 30 min. A DMSO and solvent plus JC-1 control were run concurrently with each experiment. A Packard Fluorocount spectrofluorometer (Model#BF10000, Meridan, Conn.) set at 560 nm excitation and 590 nm emission was used for quantification of aggregate fluorescence and at 485 nm excitation/530 emission for monomer fluorescence.\nMeasuring mitochondrial membrane potential changes (ΔΨm)—JC-1 (Sigma, St. Louis, Mo.) has advantages over other cationic dyes in that it can selectively enter into mitochondria and reversibly change color from green to red as the membrane potential increases. In healthy cells with high mitochondrial membrane potential (ΔΨm), JC-1 spontaneously forms complexes known as J-aggregates with intense red fluorescence. […]"}, "[2]": {"conditions": "cited from earlier work"}}}
{"smiles": "CCCCC[C@H](O)CC(=O)CCc1ccc(O)c(OC)c1", "note": "[6-Gingerol]", "values": [{"measurement": "Monomer/Aggregate Ratio", "setting": "[1]", "value": 1.14}]}
{"smiles": "COc1cc(/C=C/C(=O)CC(=O)/C=C/c2ccc(O)c(OC)c2)ccc1O", "note": "[Curcumin]", "values": [{"measurement": "Monomer/Aggregate Ratio", "setting": "[1]", "value": 3.89}]}
{"smiles": "O=[N+]([O-])c1ccc(O)c([N+](=O)[O-])c1", "note": "[DNP, 2,4-dinitrophenol]", "values": [{"measurement": "Potency of positive control (decrease of ΔΨm)", "setting": "[1]; 18.4 μg DNP/mL", "value": 45, "unit": "%"}, {"measurement": "Mean M/A (monomer/aggregate ratio) of positive control", "setting": "[1]; 100 μM 2,4-dinitrophenol (18.4 μg DNP/mL), 95% CI=1.34-1.39, n=200, over the experimental period", "value": 1.36}, {"measurement": "Concentration at which monomer/aggregate ratio is significantly increased (p<0.05) relative to JC-1 negative controls", "setting": "[1]; 3T3-L1 adipocytes, 500, 100, 50, 10 or 5 μM for 60 min, FIG. 2", "value": "≥ 50", "unit": "µM"}, {"measurement": "Change of ΔΨm in 3T3-L1 adipocytes (in words)", "setting": "[1]; relative to negative JC-1 controls", "value": "dose-related decreased in ΔΨm"}, {"measurement": "Average fall in diastolic blood pressure", "setting": "[2]; 30 hypertensive patients", "value": 12.6, "unit": "%"}, {"measurement": "Average fall in systolic blood pressure", "setting": "[2]; 30 hypertensive patients", "value": 9.4, "unit": "%"}, {"measurement": "Dose generally well-tolerated", "setting": "[2]; approximately 5 mg/kg body weight, feeling of warmth and increased perspiration reported", "value": "up to 0.5 g"}, {"measurement": "Gradual increase in metabolic rate (average)", "setting": "[2]; daily dosing of 3-5 mg/kg, maintained for a minimum of ten weeks", "value": 40, "unit": "%"}, {"measurement": "Dose producing profuse sweating, increased heart rate, respiration rate and excessive body temperature rises", "setting": "[2]; human, in vivo", "value": "Above 10 mg/kg"}, {"measurement": "Average increase in metabolic rate for each dosage increment of 0.1 g", "setting": "[2]; obese patients", "value": 11, "unit": "%"}, {"measurement": "Increase in resting metabolic rate", "setting": "[2]; single doses of 3-5 mg/kg, within the first hour, maintained for 24 hours", "value": "20-30%"}, {"measurement": "Effect on blood pressure or heart rate", "setting": "[2]; therapeutic doses, normal patients", "value": "no effect on blood pressure or heart rate"}]}
{"smiles": "Oc1ccc(C=Cc2cc(O)cc(O)c2)cc1", "note": "[Resveratrol]", "values": [{"measurement": "Monomer/Aggregate Ratio", "setting": "[1]", "value": 1.48}]}
{"smiles": "C[C@@H]1O[C@@H](OC[C@H]2O[C@@H](Oc3c(-c4ccc(O)c(O)c4)oc4cc(O)cc(O)c4c3=O)[C@H](O)[C@@H](O)[C@@H]2O)[C@H](O)[C@H](O)[C@H]1O", "note": "[Rutin Powder, Rutin]", "values": [{"measurement": "Monomer/Aggregate Ratio", "setting": "[1]", "value": 1.37}]}
{"smiles": "CNCC(O)c1ccc(O)cc1", "note": "(centres unmarked) [Synephrine]", "values": [{"measurement": "Monomer/Aggregate Ratio", "setting": "[1]", "value": 1.06}]}
